Test results taken from patent publication US20210220356A1, “DIHYDROPYRIMIDINE DERIVATIVES AND USES THEREOF IN THE TREATMENT OF HBV INFECTION OR OF HBV-INDUCED DISEASES” (Janssen Sciences Ireland Unlimited Company, priority 2018, published 2021).
Structures can show the parent of a compound that is named as a salt. Where two headings read alike, the source gives them in different places.

Assays:
HBV = HBV inhibitory activity in HepG2.2.15 cells (HBV DNA in culture medium by q-PCR); assay type: cell-based
Method in brief: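 HepG2.2.15 cells (40,000/well, 2% FBS) treated 6 days with compounds, medium refreshed once; 8 points, 3-fold dilution, top 10 uM. Secreted HBV DNA in medium extracted and quantified by q-PCR; EC50 calculated from dose-response.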

[1] = Cytotoxicity determination in HepG2.2.15 cells (CCK-8); assay type: cell-based; conditions: human, HepG2.2.15 cells, 5,000 cells/well, 6 days of compound treatment, CCK-8 absorbance 450 nm, highest concentration 100 uM
Method in brief: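 HepG2.2.15 cells, 5,000/well in 2% FBS medium, treated 6 days with compound (medium refreshed midway), 8-point 3-fold dilutions from 100 uM top. Viability read by CCK-8, 2.5 h at 37° C, absorbance 450 nm with 630 nm reference; CC50 from curve fitting.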

[2] = HepG2.2.15 cells, 40,000 cells/well, 6 days of compound treatment, HBV DNA in culture medium by q-PCR, highest concentration 10 uM, read-out: EC50
[3] = Hepatitis B virus, HepG2.2.15, 144 h, HepG2.2.15 cells, 40,000 cells/well, 6 days of compound treatment, HBV DNA in culture medium by q-PCR, highest concentration 10 uM, read-out: EC50
[4] = Hepatitis B virus, HepG2.2.15, 144 h

Row | SMILES | EC50 (HBV; [2]) [nM] | CC50 at 6 days ([1]; HepG2.2.15 cells) [nM] | EC50 (HBV; [3]) [nM] | EC50 (HBV; [4]) [nM] | CC50 at 6 days [1] [nM]
1 | COC(=O)C1=C(C2CCc3nn(CCCC(=O)O)cc3C2)NC(c2nccs2)=NC1c1ccc(F)c(F)c1Cl (single isomer, unassigned) [Compound 74B, 4-(5-(6-(2-chloro-3,4-difluorophenyl)-5-(methoxycarbonyl)-2-(thiazol-2-yl)-3,6-dihydropyrimidin-4-yl)-4,5,6,7-tetrahydro-2H-indazol-2-yl)butanoic acid] | 66.1 | 19600 | – | – | –
2 | COC(=O)C1=C(C2CCc3nn(C(C)(C)CC(=O)O)cc3C2)NC(c2nccs2)=NC1c1ccc(F)c(F)c1Cl (single isomer, unassigned) [Compound 82b] | 86.1 | 15900 | – | – | –
3 | CCOC(=O)C1=C(C2CCc3nn([C@H]4C[C@H](C(=O)O)C4)cc3C2)NC(c2nccs2)=NC1c1ccc(F)c(F)c1Cl (stereo partly drawn) [Compound 54, (trans)-3-(5-(6-(2-Chloro-3,4-difluorophenyl)-5-(ethoxycarbonyl)-2-(thiazol-2-yl)-3,6-dihydropyrimidin-4-yl)-4,5,6,7-tetrahydro-2H-indazol-2-yl)cyclobutanecarboxylic acid] | – | 16000 | 19.8 | – | –
4 | CCOC(=O)C1=C(C2Cc3cn(CCC(=O)O)nc3C(C)(C)C2)NC(c2nccs2)=NC1c1ccc(F)c(F)c1Cl (stereo not shown) [Compound 55a, 3-(5-(6-(2-chloro-3,4-difluorophenyl)-5-(ethoxycarbonyl)-2-(thiazol-2-yl)-3,6-dihydropyrimidin-4-yl)-7,7-dimethyl-4,5,6,7-tetrahydro-2H-indazol-2-yl)propanoic acid] | 81 | 8500 | – | – | –
5 | CCOC(=O)C1=C(C2CCc3c(cn(CCC(=O)O)c3C#N)C2)NC(c2nccs2)=NC1c1ccc(F)c(F)c1Cl (stereo not shown) [Compound 62, 3-(5-(6-(2-Chloro-3,4-difluorophenyl)-5-(ethoxycarbonyl)-2-(thiazol-2-yl)-3,6-dihydropyrimidin-4-yl)-1-cyano-4,5,6,7-tetrahydro-2H-isoindol-2-yl)propanoic acid] | – | 5000 | 6.9 | – | –
6 | CCOC(=O)C1=C(C2CCc3cn(CCC(=O)O)c(C#N)c3C2)NC(c2nccs2)=NC1c1ccc(F)c(F)c1Cl (stereo not shown) [Compound 63, 3-(6-(6-(2-Chloro-3,4-difluorophenyl)-5-(ethoxycarbonyl)-2-(thiazol-2-yl)-3,6-dihydropyrimidin-4-yl)-1-cyano-4,5,6,7-tetrahydro-2H-isoindol-2-yl)propanoic acid] | – | 5100 | 436 | – | –
7 | COC(=O)C1=C(C2CCc3nc(CCC(=O)O)ncc3C2)NC(c2nccs2)=NC1c1ccc(F)c(F)c1Cl (stereo not shown) [Compound 64, 3-(6-(6-(2-Chloro-3,4-difluorophenyl)-5-(methoxycarbonyl)-2-(thiazol-2-yl)-3,6-dihydropyrimidin-4-yl)-5,6,7,8-tetrahydroquinazolin-2-yl)propanoic acid] | – | 26400 | 70 | – | –
8 | CCOC(=O)C1=C(C2CCc3[nH]ncc3C2)NC(c2nccs2)=NC1c1ccc(F)c(F)c1Cl (stereo not shown) [Compound 66, Ethyl 4-(2-chloro-3,4-difluorophenyl)-6-(4,5,6,7-tetrahydro-1H-indazol-5-yl)-2-(thiazol-2-yl)-1,4-dihydropyrimidine-5-carboxylate] | – | 6400 | 64.7 | – | –
9 | COC(=O)C1=C(C2CCc3nn(CCC(=O)O)cc3C2)NC(c2nccs2)=NC1c1ccc(F)c(F)c1C (stereo not shown) [Compound 76c, 3-(5-(6-(3,4-difluoro-2-methylphenyl)-5-(methoxycarbonyl)-2-(thiazol-2-yl)-3,6-dihydropyrimidin-4-yl)-4,5,6,7-tetrahydro-2H-indazol-2-yl)propanoic acid] | – | 16100 | 13 | – | –
10 | COC(=O)C1=C(C2CCc3nc(C(=O)O)oc3C2)NC(c2nccs2)=NC1c1ccc(F)c(F)c1Cl (stereo not shown) [Compound 78c, lithium 6-(6-(2-chloro-3,4-difluorophenyl)-5-(methoxycarbonyl)-2-(thiazol-2-yl)-3,6-dihydropyrimidin-4-yl)-4,5,6,7-tetrahydrobenzo[d]oxazole-2-carboxylate] | – | – | – | 57.1 | 52000
11 | COC(=O)C1=C(C2CCc3nn(CCC(=O)O)cc3C2)NC(c2nccs2)=NC1c1ccc(F)cc1C (stereo not shown) [Compound 80c, 3-(5-(6-(4-fluoro-2-methylphenyl)-5-(methoxycarbonyl)-2-(thiazol-2-yl)-3,6-dihydropyrimidin-4-yl)-4,5,6,7-tetrahydro-2H-indazol-2-yl)propanoic acid] | – | 33200 | 72.4 | – | –
12 | COC(=O)C1=C(C2CCc3nn(CC(C)(C)C(=O)O)cc3C2)NC(c2nccs2)=NC1c1ccc(F)c(F)c1Cl (stereo not shown) [Compound 84d, 3-(5-(6-(2-chloro-3,4-difluorophenyl)-5-(methoxycarbonyl)-2-(thiazol-2-yl)-3,6-dihydropyrimidin-4-yl)-4,5,6,7-tetrahydro-2H-indazol-2-yl)-2,2-dimethylpropanoic acid] | – | 16400 | 18.8 | – | –
13 | CCOC(=O)C1=C(C2CCc3nn(CCC(C)(C)C(=O)O)cc3C2)NC(c2nccs2)=NC1c1ccc(F)c(F)c1Cl (stereo not shown) [Compound 88d, 4-(5-(6-(2-Chloro-3,4-difluorophenyl)-5-(ethoxycarbonyl)-2-(thiazol-2-yl)-3,6-dihydropyrimidin-4-yl)-4,5,6,7-tetrahydro-2H-indazol-2-yl)-2,2-dimethylbutanoic acid] | – | 9800 | 20.8 | – | –
14 | COC(=O)C1=C(C2CCc3nn(CCC(C)(C)C(=O)O)cc3C2)NC(c2nccs2)=NC1c1ccc(F)c(F)c1Cl (stereo not shown) [Compound 90c, 4-(5-(6-(2-Chloro-3,4-difluorophenyl)-5-(methoxycarbonyl)-2-(thiazol-2-yl)-3,6-dihydropyrimidin-4-yl)-4,5,6,7-tetrahydro-2H-indazol-2-yl)-2,2-dimethylbutanoic acid] | – | 13300 | 24.9 | – | –
15 | CCOC(=O)C1=C(C2CCc3nn(CC(C)(C)C(=O)O)cc3C2)NC(c2nccs2)=NC1c1ccc(F)c(F)c1C (stereo not shown) [Compound 92c, 3-(5-(6-(3,4-difluoro-2-methylphenyl)-5-(ethoxycarbonyl)-2-(thiazol-2-yl)-3,6-dihydropyrimidin-4-yl)-4,5,6,7-tetrahydro-2H-indazol-2-yl)-2,2-dimethylpropanoic acid] | – | 9300 | 7.9 | – | –
16 | CCOC(=O)C1=C(C2CCc3nn(CC(C)(C)C(=O)O)cc3C2)NC(c2ncc(F)cc2F)=NC1c1ccc(F)c(F)c1Cl (stereo not shown) [Compound 94c, 3-(5-(6-(2-Chloro-3,4-difluorophenyl)-2-(3,5-difluoropyridin-2-yl)-5-(ethoxycarbonyl)-3,6-dihydropyrimidin-4-yl)-4,5,6,7-tetrahydro-2H-indazol-2-yl)-2,2-dimethylpropanoic acid hydrochloride] | – | – | – | 7.1 | 16500
17 | COC(=O)C1=C(C2CCc3nn([C@H]4C[C@@H](C(=O)O)C4)cc3C2)NC(c2nccs2)=NC1c1ccc(F)c(F)c1Cl (stereo partly drawn) [Compound 96d, (cis)-3-(5-(6-(2-Chloro-3,4-difluorophenyl)-5-(methoxycarbonyl)-2-(thiazol-2-yl)-3,6-dihydropyrimidin-4-yl)-4,5,6,7-tetrahydro-2H-indazol-2-yl)cyclobutanecarboxylic acid] | – | 19300 | 24.7 | – | –
